# From PubChem BioAssay (NCI)
#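 1) Cells in 96-well plates. 2) Compound, 48 h, 5 concentrations. 3) Linear interpolation between surrounding doses. 4) Unreached endpoint = highest concentration. GI50 = concentration required for 50% inhibition of growth. TGI marks complete inhibition of growth.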 *1 amine or outer side, *2 acyl side, *3 side chain or, on linkers, in order; H or OH if unused. Where a SMILES comes first, the peptide text is derived from it. [ ]: non-standard residue; d: D form. X38 = CSCCCC(N[*:1])C(=O)[*:2]
# Assays:
# Assay in all cases: inhibition of tumour cell growth, NCI panel, 48 h
# [1] = test system: 786-0 renal
# [2] = test system: A498 renal
# [3] = test system: A549 NSCLC
# [4] = test system: ACHN renal
# [5] = test system: BT-549 breast
# [6] = test system: CAKI-1 renal
# [7] = test system: COLO 205 colon
# [8] = test system: DU-145 prostate
# [9] = test system: EKVX NSCLC
# [10] = test system: HCC-2998 colon
# [11] = test system: HCT-116 colon
# [12] = test system: HCT-15 colon
# [13] = test system: HL-60(TB) leukemia
# [14] = test system: HOP-62 NSCLC
# [15] = test system: HOP-92 NSCLC
# [16] = test system: HS 578T breast
# [17] = test system: HT29 colon
# [18] = test system: IGROV1 ovarian
# [19] = test system: KM12 colon
# [20] = test system: LOX IMVI melanoma
# [21] = test system: M14 melanoma
# [22] = test system: MALME-3M melanoma
# [23] = test system: MCF7 breast
# [24] = test system: MDA-MB-231 breast
# [25] = test system: MDA-MB-435
# [26] = test system: MOLT-4 leukemia
# [27] = test system: NCI-H226 lung
# [28] = test system: NCI-H23 lung
# [29] = test system: NCI-H460 lung
# [30] = test system: NCI-H522 lung
# [31] = test system: OVCAR-3 ovarian
# [32] = test system: OVCAR-4 ovarian
# [33] = test system: OVCAR-5 ovarian
# [34] = test system: PC-3 prostate
# [35] = test system: RXF 393 renal
# [36] = test system: SF-268 CNS
# [37] = test system: SF-295 CNS
# [38] = test system: SF-539 CNS
# [39] = test system: SK-MEL-2 melanoma
# [40] = test system: SK-MEL-28 melanoma
# [41] = test system: SK-MEL-5 melanoma
# [42] = test system: SN12C renal
# [43] = test system: SNB-19 CNS
# [44] = test system: SNB-75 CNS
# [45] = test system: SW-620 colon
# [46] = test system: T-47D breast
# [47] = test system: TK-10 renal
# [48] = test system: U251 CNS
# [49] = test system: UACC-257 melanoma
# [50] = test system: UACC-62 melanoma
# [51] = test system: UO-31 renal
compound,measurement,setting,value
COc1ccc2nc(NCCCNCCO)c3sc4ccc(F)cc4c(=O)c3c2c1,GI50,[1],1380 nM
same,TGI,[1],2820 nM
same,GI50,[2],1530 nM
same,TGI,[2],2980 nM
same,GI50,[3],1600 nM
same,TGI,[3],3640 nM
same,GI50,[4],1630 nM
same,TGI,[4],2990 nM
same,GI50,[5],12800 nM
same,TGI,[5],31700 nM
same,GI50,[6],1580 nM
same,TGI,[6],2980 nM
same,GI50,[7],1800 nM
same,TGI,[7],3770 nM
same,GI50,[8],1600 nM
same,TGI,[8],3040 nM
same,GI50,[9],1450 nM
same,TGI,[9],2940 nM
same,GI50,[10],1760 nM
same,TGI,[10],3610 nM
same,GI50,[11],1470 nM
same,TGI,[11],2860 nM
same,GI50,[12],1280 nM
same,TGI,[12],2640 nM
same,GI50,[13],1920 nM
same,TGI,[13],3870 nM
same,GI50,[14],1620 nM
same,TGI,[14],3260 nM
same,GI50,[15],1100 nM
same,TGI,[15],2450 nM
same,GI50,[16],1600 nM
same,TGI,[16],3570 nM
same,GI50,[17],1580 nM
same,TGI,[17],3230 nM
same,GI50,[18],1250 nM
same,TGI,[18],2630 nM
same,GI50,[19],1810 nM
same,TGI,[19],3520 nM
same,GI50,[20],1480 nM
same,TGI,[20],2900 nM
same,GI50,[21],1850 nM
same,TGI,[21],3480 nM
same,GI50,[22],1690 nM
same,TGI,[22],3230 nM
same,GI50,[23],1790 nM
same,TGI,[23],3530 nM
same,GI50,[24],1430 nM
same,TGI,[24],2840 nM
same,GI50,[25],1660 nM
same,TGI,[25],3100 nM
same,GI50,[26],1850 nM
same,TGI,[26],3970 nM
same,GI50,[27],1740 nM
same,TGI,[27],3490 nM
same,GI50,[28],1730 nM
same,TGI,[28],3270 nM
same,GI50,[29],1530 nM
same,TGI,[29],3020 nM
same,GI50,[30],1770 nM
same,TGI,[30],3550 nM
same,GI50,[31],1800 nM
same,TGI,[31],3380 nM
same,GI50,[32],1760 nM
same,TGI,[32],3430 nM
same,GI50,[33],1500 nM
same,TGI,[33],2870 nM
same,GI50,[34],1560 nM
same,TGI,[34],3040 nM
same,GI50,[35],1260 nM
same,TGI,[35],2610 nM
same,GI50,[36],1450 nM
same,TGI,[36],3150 nM
same,GI50,[37],1730 nM
same,TGI,[37],3220 nM
same,GI50,[38],1710 nM
same,TGI,[38],3180 nM
same,GI50,[39],1920 nM
same,TGI,[39],3950 nM
same,GI50,[40],1780 nM
same,TGI,[40],3210 nM
same,GI50,[41],1730 nM
same,TGI,[41],3140 nM
same,GI50,[42],1560 nM
same,TGI,[42],3030 nM
same,GI50,[43],1700 nM
same,TGI,[43],3200 nM
same,GI50,[44],1550 nM
same,TGI,[44],3050 nM
same,GI50,[45],1530 nM
same,TGI,[45],3040 nM
same,GI50,[46],1680 nM
same,TGI,[46],3930 nM
same,GI50,[47],1720 nM
same,TGI,[47],3300 nM
same,GI50,[48],1620 nM
same,TGI,[48],3380 nM
same,GI50,[49],1890 nM
same,TGI,[49],4040 nM
same,GI50,[50],1760 nM
same,TGI,[50],3290 nM
same,GI50,[51],1460 nM
same,TGI,[51],2800 nM
CSCCCC(NC(=O)CNC(=O)C1CCCN1C(=O)C(Cc1ccc(O)cc1)NC(=O)C(Cc1ccccc1)NC(=O)C(CCCN=C(N)N)NC(=O)C(CC(=O)O)NC(=O)C1CCCN1C(=O)C(CC(=O)O)NC(=O)C1CCCN1C(=O)C1CCCN1C(=O)CN)C(N)=O (configuration not stated) (H-GPPDPDRFYPG[X38]-NH2; configuration not given here),TGI,[5],> 50000 nM
same,TGI,[15],> 50000 nM
same,TGI,[27],> 50000 nM
same,TGI,[28],> 50000 nM
same,TGI,[49],> 50000 nM
